#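 Abbreviation: GI50, concentration required for 50% inhibition of growth. The concentration for full growth arrest is given as TGI.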
# Key:
# Assay in all cases: NCI-60 cell line screen, 384-well format
# KM12 colon = test system: KM12 colon
# NCI-H522 lung = test system: NCI-H522 lung
# A498 renal = test system: A498 renal
# T-47D breast = test system: T-47D breast
# ACHN renal = test system: ACHN renal
# MDA-MB-435 melanoma = test system: MDA-MB-435 melanoma
# OVCAR-4 ovarian = test system: OVCAR-4 ovarian
# U251 glioblastoma = test system: U251 glioblastoma
# MALME-3M melanoma = test system: MALME-3M melanoma
# MCF7 breast = test system: MCF7 breast
# EKVX NSCLC = test system: EKVX NSCLC
# CCRF-CEM leukemia = test system: CCRF-CEM leukemia
# A549 NSCLC = test system: A549 NSCLC
# RXF 393 renal = test system: RXF 393 renal
# SR leukemia = test system: SR leukemia
# UO-31 renal = test system: UO-31 renal
# MOLT-4 leukemia = test system: MOLT-4 leukemia
# CAKI-1 renal = test system: CAKI-1 renal
# SK-OV-3 ovarian = test system: SK-OV-3 ovarian
# HT29 colon = test system: HT29 colon
# SF-295 CNS = test system: SF-295 CNS
# OVCAR-8 ovarian = test system: OVCAR-8 ovarian
# HL-60(TB) leukemia = test system: HL-60(TB) leukemia
# SF-539 CNS = test system: SF-539 CNS
# SNB-75 CNS = test system: SNB-75 CNS
# NCI/ADR-RES ovarian = test system: NCI/ADR-RES ovarian
# SN12C renal = test system: SN12C renal
# MDA-MB-231 breast = test system: MDA-MB-231 breast
# SK-MEL-5 melanoma = test system: SK-MEL-5 melanoma
# COLO 205 colon = test system: COLO 205 colon
# HCT-15 colon = test system: HCT-15 colon
# HOP-62 NSCLC = test system: HOP-62 NSCLC
# IGROV1 ovarian = test system: IGROV1 ovarian
# PC-3 prostate = test system: PC-3 prostate
# LOX IMVI melanoma = test system: LOX IMVI melanoma
# HOP-92 NSCLC = test system: HOP-92 NSCLC
# NCI-H226 lung = test system: NCI-H226 lung
# HS 578T breast = test system: HS 578T breast
# UACC-257 melanoma = test system: UACC-257 melanoma
# SW-620 colon = test system: SW-620 colon
# SNB-19 CNS = test system: SNB-19 CNS
# UACC-62 melanoma = test system: UACC-62 melanoma
# HCC-2998 colon = test system: HCC-2998 colon
# RPMI-8226 leukemia = test system: RPMI-8226 leukemia
# NCI-H460 NSCLC = test system: NCI-H460 NSCLC
# DU-145 prostate = test system: DU-145 prostate
# OVCAR-3 ovarian = test system: OVCAR-3 ovarian
# 786-0 renal = test system: 786-0 renal
# BT-549 breast = test system: BT-549 breast
# TK-10 renal = test system: TK-10 renal
# MDA-MB-468 breast = test system: MDA-MB-468 breast
# NCI-H23 lung = test system: NCI-H23 lung
# SF-268 CNS = test system: SF-268 CNS
# K-562 leukemia = test system: K-562 leukemia
# M14 melanoma = test system: M14 melanoma
# OVCAR-5 ovarian = test system: OVCAR-5 ovarian
smiles,measurement,setting,value
CN(C)CCNC(=O)NC[C@H]1CC[C@@H]2[C@H](O1)c1cc(C(F)(F)F)ccc1N[C@H]2c1ccccc1,GI50,KM12 colon,128 nM
same,TGI,KM12 colon,11800 nM
same,GI50,NCI-H522 lung,29.8 nM
same,TGI,NCI-H522 lung,73.6 nM
same,GI50,A498 renal,88.3 nM
same,TGI,A498 renal,18700 nM
same,GI50,T-47D breast,325 nM
same,TGI,T-47D breast,12900 nM
same,GI50,ACHN renal,11300 nM
same,TGI,ACHN renal,23500 nM
same,GI50,MDA-MB-435 melanoma,21.8 nM
same,TGI,MDA-MB-435 melanoma,45.8 nM
same,GI50,OVCAR-4 ovarian,370 nM
same,TGI,OVCAR-4 ovarian,10800 nM
same,GI50,U251 glioblastoma,80.3 nM
same,TGI,U251 glioblastoma,18100 nM
same,GI50,MALME-3M melanoma,387 nM
same,TGI,MALME-3M melanoma,15000 nM
same,GI50,MCF7 breast,64.9 nM
same,TGI,MCF7 breast,14000 nM
same,GI50,EKVX NSCLC,261 nM
same,TGI,EKVX NSCLC,16300 nM
same,GI50,CCRF-CEM leukemia,28.9 nM
same,TGI,CCRF-CEM leukemia,57 nM
same,GI50,A549 NSCLC,124 nM
same,TGI,A549 NSCLC,16900 nM
same,GI50,RXF 393 renal,78.4 nM
same,TGI,RXF 393 renal,13300 nM
same,GI50,SR leukemia,20.4 nM
same,TGI,SR leukemia,41.6 nM
same,GI50,UO-31 renal,20000 nM
same,TGI,UO-31 renal,85600 nM
same,GI50,MOLT-4 leukemia,69.6 nM
same,TGI,MOLT-4 leukemia,193 nM
same,GI50,CAKI-1 renal,223 nM
same,TGI,CAKI-1 renal,26300 nM
same,GI50,SK-OV-3 ovarian,42.5 nM
same,TGI,SK-OV-3 ovarian,18100 nM
same,GI50,HT29 colon,168 nM
same,TGI,HT29 colon,443 nM
same,GI50,SF-295 CNS,171 nM
same,TGI,SF-295 CNS,2060 nM
same,GI50,OVCAR-8 ovarian,63.4 nM
same,TGI,OVCAR-8 ovarian,16600 nM
same,GI50,HL-60(TB) leukemia,32.5 nM
same,TGI,HL-60(TB) leukemia,82.4 nM
same,GI50,SF-539 CNS,93.7 nM
same,TGI,SF-539 CNS,10800 nM
same,GI50,SNB-75 CNS,152 nM
same,TGI,SNB-75 CNS,16200 nM
same,GI50,NCI/ADR-RES ovarian,4300 nM
same,TGI,NCI/ADR-RES ovarian,18900 nM
same,GI50,SN12C renal,5120 nM
same,TGI,SN12C renal,31300 nM
same,GI50,MDA-MB-231 breast,235 nM
same,TGI,MDA-MB-231 breast,13800 nM
same,GI50,SK-MEL-5 melanoma,39.8 nM
same,TGI,SK-MEL-5 melanoma,370 nM
same,GI50,COLO 205 colon,39.4 nM
same,TGI,COLO 205 colon,156 nM
same,GI50,HCT-15 colon,303 nM
same,TGI,HCT-15 colon,12000 nM
same,GI50,HOP-62 NSCLC,618 nM
same,TGI,HOP-62 NSCLC,18200 nM
same,GI50,IGROV1 ovarian,10500 nM
same,TGI,IGROV1 ovarian,27000 nM
same,GI50,PC-3 prostate,128 nM
same,TGI,PC-3 prostate,17700 nM
same,GI50,LOX IMVI melanoma,1170 nM
same,TGI,LOX IMVI melanoma,17600 nM
same,GI50,HOP-92 NSCLC,206 nM
same,TGI,HOP-92 NSCLC,16100 nM
same,GI50,NCI-H226 lung,2760 nM
same,TGI,NCI-H226 lung,23100 nM
same,GI50,HS 578T breast,36 nM
same,TGI,HS 578T breast,131 nM
same,GI50,UACC-257 melanoma,375 nM
same,TGI,UACC-257 melanoma,15100 nM
same,GI50,SW-620 colon,89.4 nM
same,TGI,SW-620 colon,16000 nM
same,GI50,SNB-19 CNS,163 nM
same,TGI,SNB-19 CNS,19300 nM
same,GI50,UACC-62 melanoma,56 nM
same,TGI,UACC-62 melanoma,14500 nM
same,GI50,HCC-2998 colon,93.2 nM
same,TGI,HCC-2998 colon,11700 nM
same,GI50,RPMI-8226 leukemia,19.3 nM
same,TGI,RPMI-8226 leukemia,38.9 nM
same,GI50,NCI-H460 NSCLC,36 nM
same,TGI,NCI-H460 NSCLC,130 nM
same,GI50,DU-145 prostate,279 nM
same,TGI,DU-145 prostate,4690 nM
same,GI50,OVCAR-3 ovarian,37.5 nM
same,TGI,OVCAR-3 ovarian,164 nM
same,GI50,786-0 renal,528 nM
same,TGI,786-0 renal,19000 nM
same,GI50,BT-549 breast,113 nM
same,TGI,BT-549 breast,10400 nM
same,GI50,TK-10 renal,14000 nM
same,TGI,TK-10 renal,28700 nM
same,GI50,MDA-MB-468 breast,29.6 nM
same,TGI,MDA-MB-468 breast,64.7 nM
same,GI50,NCI-H23 lung,124 nM
same,TGI,NCI-H23 lung,1980 nM
same,GI50,SF-268 CNS,289 nM
same,TGI,SF-268 CNS,16400 nM
same,GI50,K-562 leukemia,53.3 nM
same,TGI,K-562 leukemia,257 nM
same,GI50,M14 melanoma,31.4 nM
same,TGI,M14 melanoma,92.3 nM
same,GI50,OVCAR-5 ovarian,380 nM
same,TGI,OVCAR-5 ovarian,12700 nM
